Assay results published in the supplement of paper PMC8671470.
± gives the standard deviation of the averaged measurements.

System: HL-60
Test: cell viability (% survival relative to DMSO control); higher = less cytotoxic
Settings: 72 h
Procedure, shortened: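 A rescreen of the full library used HL-60 cells in RPMI 1640 with 10% FBS on 384-well plates, run in duplicate at five tenfold concentrations (1–10,000 nM). Each screen included DMSO or 100 nM of one of three metabolic inhibitors and ran 72 h at 37 °C, 5% CO2. CellTiter-Glo viability was scaled between DMSO and 10 μM proteasome-inhibitor wells. Any area under the curve comes from four-parameter log-logistic fits with drc and PharmacoGx.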

[1] = 0.001 µM, co-treatment: AZD3965 100 nM
[2] = 0.001 µM, co-treatment: DMSO vehicle
[3] = 0.001 µM, co-treatment: GSK2194069 100 nM
[4] = 0.001 µM, co-treatment: pictilisib 100 nM
[5] = 0.01 µM, co-treatment: AZD3965 100 nM
[6] = 0.01 µM, co-treatment: DMSO vehicle
[7] = 0.01 µM, co-treatment: GSK2194069 100 nM
[8] = 0.01 µM, co-treatment: pictilisib 100 nM
[9] = 0.1 µM, co-treatment: AZD3965 100 nM
[10] = 0.1 µM, co-treatment: DMSO vehicle
[11] = 0.1 µM, co-treatment: GSK2194069 100 nM
[12] = 0.1 µM, co-treatment: pictilisib 100 nM
[13] = 1 µM, co-treatment: AZD3965 100 nM
[14] = 1 µM, co-treatment: DMSO vehicle
[15] = 1 µM, co-treatment: GSK2194069 100 nM
[16] = 1 µM, co-treatment: pictilisib 100 nM
[17] = 10 µM, co-treatment: AZD3965 100 nM
[18] = 10 µM, co-treatment: DMSO vehicle
[19] = 10 µM, co-treatment: GSK2194069 100 nM
[20] = 10 µM, co-treatment: pictilisib 100 nM

| SMILES | cell viability [1] [%] | cell viability [2] [%] | cell viability [3] [%] | cell viability [4] [%] | cell viability [5] [%] | cell viability [6] [%] | cell viability [7] [%] | cell viability [8] [%] | cell viability [9] [%] | cell viability [10] [%] | cell viability [11] [%] | cell viability [12] [%] | cell viability [13] [%] | cell viability [14] [%] | cell viability [15] [%] | cell viability [16] [%] | cell viability [17] [%] | cell viability [18] [%] | cell viability [19] [%] | cell viability [20] [%] |
| --- | --- | --- | --- | --- | --- | --- | --- | --- | --- | --- | --- | --- | --- | --- | --- | --- | --- | --- | --- | --- |
| Cc1coc2c1C(=O)C(=O)c1c-2ccc2c(C)cccc12 [Tanshinone I] | 100.1 ± 0.2 | 97.288 ± 0.063 | 94.6 ± 6.6 | 97.1 ± 5.6 | 101 ± 1.8 | 103 ± 6.3 | 103.8 ± 0.31 | 104 ± 3.1 | 104 ± 9.7 | 101.8 ± 0.9 | 108 ± 12 | 101 ± 0.32 | 104 ± 1.6 | 103.5 ± 0.31 | 102 ± 4.4 | 103.6 ± 0.57 | 100.3 ± 0.27 | 97.2 ± 5.3 | 101 ± 1.4 | 106 ± 9.7 |
| CC12CCC(O)CC1CCC1C2CCC2(C)C(C3=CC(=O)OC3)CCC12O (stereo not given) [Digitoxigenin] | 104 ± 7.6 | 99.5 ± 2.3 | 98.16 ± 0.98 | 104 ± 4.3 | 100 ± 5.7 | 105 ± 4.2 | 99.7 ± 2 | 105 ± 4.2 | 102 ± 1.2 | 100 ± 3 | 95 ± 3 | 101.7 ± 0.93 | -0.584 ± 0.77 | -1.01 ± 1.5 | -0.749 ± 1.5 | -1.18 ± 0.99 | -0.476 ± 0.086 | -0.944 ± 0.072 | -1.7 ± 0.21 | -1.09 ± 0.14 |
| Sc1ncnc2nc[nH]c12 [6-mercaptopurine] | 101.3 ± 0.71 | 104 ± 1.1 | 99.93 ± 0.86 | 102 ± 1.8 | 102.8 ± 0.97 | 98.8 ± 7 | 106 ± 2.9 | 108 ± 6.8 | 96.3 ± 2 | 97.9 ± 2.4 | 95.62 ± 0.77 | 91.2 ± 1 | 101.2 ± 0.68 | 102 ± 4.9 | 89.8 ± 13 | 98.3 ± 10 | 23.9 ± 2 | 35.1 ± 1.3 | 35.9 ± 3 | 32.6 ± 0.66 |
| C1CCc2nnc(C34CC5CC(CC(C5)C3)C4)n2CC1 [MERCK-544] | 103 ± 3 | 98.4 ± 1.3 | 105 ± 1.7 | 97 ± 1.1 | 103.1 ± 0.36 | 103 ± 2.8 | 108 ± 2 | 109 ± 8.3 | 99.41 ± 0.58 | 98.1 ± 2.4 | 99.8 ± 1.6 | 96.63 ± 0.71 | 100.6 ± 0.51 | 99.7 ± 1.4 | 96.27 ± 0.66 | 95.52 ± 0.25 | 108 ± 2 | 101 ± 2.6 | 109 ± 5.7 | 102 ± 10 |
| Cl.OC[C@H]1NC[C@@H](O)[C@@H](O)[C@@H]1O [1-Deoxymannojirimycin hydrochloride] | 100 ± 3.4 | 99 ± 15 | 94.8 ± 6.3 | 95 ± 18 | 99.9 ± 6.2 | 107 ± 2.2 | 90.2 ± 12 | 99.8 ± 5 | 101 ± 1.6 | 100 ± 1.1 | 93.66 ± 0.51 | 102 ± 2.5 | 101.8 ± 0.31 | 106 ± 1.2 | 101 ± 9 | 111.2 ± 1 | 101 ± 5.8 | 95.9 ± 2.1 | 86.6 ± 3 | 104 ± 6.5 |
| Nc1ncnc2c1ncn2[C@@H]1O[C@H](CSCC[C@H](N)C(=O)O)[C@@H](O)[C@H]1O [S-Adenosyl Homocysteine] | 103 ± 18 | 97.1 ± 11 | 91.8 ± 36 | 108 ± 33 | 85.2 ± 20 | 93.3 ± 4.4 | 86.7 ± 12 | 78.6 ± 4.6 | 101 ± 3.4 | 98.6 ± 3.3 | 103 ± 8.4 | 102 ± 5.2 | 97.2 ± 3.1 | 98.5 ± 2.5 | 99.08 ± 0.63 | 97.8 ± 7 | 101.99 ± 0.033 | 99.4 ± 3.9 | 94.5 ± 13 | 98 ± 4.3 |
| C[C@]12O[C@H](C[C@]1(O)CO)n1c3ccccc3c3c4c(c5c6ccccc6n2c5c31)CNC4=O [Lestaurtinib] | 104 ± 3.9 | 98.1 ± 4.1 | 107 ± 9.9 | 102 ± 4.3 | 92.9 ± 13 | 70.9 ± 44 | 86.5 ± 36 | 66.2 ± 28 | 76.5 ± 4.3 | 86.9 ± 3.4 | 83.2 ± 7.7 | 53.5 ± 8.1 | 23.5 ± 3.5 | 26.6 ± 0.46 | 31 ± 4.3 | 20.3 ± 3.2 | -1.19 ± 0.32 | -1.8 ± 0.59 | -1.73 ± 0.11 | -2.07 ± 1.2 |
| O=C(O)CCc1ccc(NCc2cccc(Oc3ccccc3)c2)cc1 [GW9508] | 101 ± 1.3 | 95.5 ± 6.2 | 105 ± 9.8 | 99.4 ± 5.3 | 98.73 ± 0.68 | 99.12 ± 0.57 | 98.1 ± 2.8 | 90.3 ± 3.8 | 98 ± 3.5 | 101.3 ± 0.3 | 101 ± 2.4 | 90.9 ± 12 | 105 ± 4.1 | 99.6 ± 0.95 | 108 ± 8.4 | 97.1 ± 6.7 | 103 ± 3.2 | 98.5 ± 1.1 | 107 ± 3.9 | 100 ± 3.3 |
| CC(/C=C1\SC(=S)N(CC(=O)O)C1=O)=C\c1ccccc1 [Epalrestat] | 102 ± 1.1 | 100 ± 6.5 | 102 ± 5.9 | 92 ± 4.1 | 64.9 ± 48 | 79.3 ± 39 | 79.1 ± 29 | 75.1 ± 35 | 105.5 ± 0.65 | 102 ± 4 | 109 ± 3.6 | 97.1 ± 7.8 | 101.8 ± 0.5 | 100.82 ± 0.007 | 107.58 ± 0.028 | 95.4 ± 13 | 87.6 ± 2.7 | 94.16 ± 0.38 | 94.2 ± 4.2 | 88.6 ± 2.3 |
| C[C@H]1O[C@@H](O[C@H]2[C@@H](O)C[C@H](O[C@H]3[C@@H](O)C[C@H](O[C@H]4CC[C@@]5(C)[C@H](CC[C@@H]6[C@@H]5C[C@@H](O)[C@]5(C)[C@@H](C7=CC(=O)OC7)CC[C@]65O)C4)O[C@@H]3C)O[C@@H]2C)C[C@H](O)[C@@H]1O [Digoxin] | 75.4 ± 20 | 96.3 ± 4.9 | 84.4 ± 2.7 | 90.5 ± 2.1 | 100.2 ± 0.99 | 102.5 ± 0.88 | 79.1 ± 12 | 89.6 ± 7.5 | 59.9 ± 4.1 | 59.4 ± 21 | 67.8 ± 22 | 51.4 ± 16 | -2.24 ± 0.7 | 0.303 ± 2.7 | -2.57 ± 0.89 | -2.59 ± 1.1 | -0.643 ± 0.45 | -1.62 ± 0.34 | -1.79 ± 0.52 | -1.33 ± 0.87 |
| OCCN1CCN(CCCN2c3ccccc3Sc3ccc(Cl)cc32)CC1 [Perphenazine] | 101 ± 1.7 | 105 ± 2.5 | 98.1 ± 2.6 | 99.74 ± 0.41 | 99.4 ± 5.2 | 102 ± 1.6 | 101 ± 11 | 105 ± 2 | 107 ± 5.8 | 105 ± 4.4 | 95.1 ± 16 | 107 ± 8.5 | 98.6 ± 1.1 | 103.72 ± 0.059 | 97.5 ± 15 | 109 ± 5.6 | 86.3 ± 7 | 91.3 ± 5.4 | 55.4 ± 12 | 61.7 ± 8 |
